Tests used:
Format in all cases: in vivo, human
[1] = Clinical responses of hormone allergy symptoms to intradermal administration of progesterone; conditions: dilute doses, sublingually or intradermally
Procedure: Patients experiencing several hormone allergy symptoms experienced relief when administered dilute doses of progesterone either sublingually or intradermally. […] The symptoms measured were irritation or pain in the neck, nose, eyes, throat, ear, skin, back, hips, upper extremities and lower extremities, headache, and shortness of breath. The patients were administered 0.5 mg of progesterone intradermally. Patients were designated as responding patients in Table 2 if they experienced any relief of the indicated symptom. Patients were also asked to estimate the amount of improvement in the symptom, an average of which is indicated as the % improvement in responding patients. In Table 3 the probability that positive results (i.e. patients responding to treatment) were due to random effects was calculated using standard statistical analysis of patient tests. It was assumed that if the treatment has no effect, there is a 50% chance that a patient will indicate a positive response and a 50% chance that a patient will indicate a negative response. From this assumption, coupled with the actual data, one may calculate the probability that positive responses are due to an actual effect of the treatment and not simply random effects. In general, results with a less than 1% chance of being random are considered highly significant. […]

[2] = Symptom relief on a 0 to 10 scale in women with acute asthma after intradermal progesterone
Procedure: To test this hypothesis, 142 women with acute asthma were asked to evaluate the severity of their symptoms using an eleven point scale. Ten was assigned to the most severe symptoms, while 0 was assigned to an absence of symptoms. Immediately after assessing their symptoms on this scale, patents were administered 0.5 mg of progesterone by intradermal injection. Approximately 15 to 30 seconds after the injection was administered, each patient was asked if her symptoms were worse, better, or unchanged. Each patient was also asked to rate her present symptoms on the same 0 to 10 scale. […] Of the 142 patients tested 129 (91%) positively responded to the treatment. Using the random effects calculations described in Example 3, this correlates to a less than 0.1% chance that the results are random. Thus the results may be considered highly significant.

[3] = Relief of symptoms with intradermal estrogen in patients not relieved by progesterone; conditions: 0.4 mg intradermally; many patients whose symptoms are not relieved using progesterone
[4] = 0.5 mg intradermal injection, 142 women with acute asthma, 15 to 30 seconds after injection

Compound | effectiveness in producing symptom relief as compared to several other antigens [1] | speed of relief ([1]; in most patients) | average symptomatic relief for those who reported some response ([2]; 0 to 10 scale, responders only) | average symptomatic relief for all patients ([2]; 0 to 10 scale, responding and not responding patients) | % of patients reporting 100% relief of asthma symptoms ([2]; 0.5 mg intradermal injection) | average reduction in symptoms relative to the maximum individual patient score ([2]; 0.5 mg intradermal injection) | % of patients positively responding to the treatment [2, 4] | number of patients positively responding to the treatment [2, 4] | number of patients reporting 100% relief of asthma symptoms ([2]; 0.5 mg intradermal injection, of the 129 patients with symptom relief) | relief of symptoms [3]
CC(=O)[C@H]1CC[C@H]2[C@@H]3CCC4=CC(=O)CC[C@]4(C)[C@H]3CC[C@]12C [Progesterone] | most effective | very quickly | 5 points | 3.4 points | 28% | 62% | 91% | 129 | 40 | 
estrogen |  |  |  |  |  |  |  |  |  | experience relief

— patent publication US20050065136A1, “Methods and compositions for the treatment of infertility using dilute hormone solutions” (priority 2003, published 2005)
